Assays:
Assay in all cases: Ba/F3 drug screening, Cell Titer Glo, IC50 Mut/WT
Assay type in all cases: cell-based
[1] = molecular target: T1, EGFR L747S (Homo sapiens, UniProt P00533, L747S); conditions: Ba/F3 cells, EGFR L747S (PACC), Mut/WT
T1 construct: expressed in transfected cells; host or cells: Ba/F3
Description: (§1) Data represent the ratio of the IC50 value for a given TKI for cells with a PACC EGFR mutation to the IC50 value for cells with wildtype EGFR.
(§2) Ba/F3 cell generation, drug screening, and IC50 approximations. Ba/F3 cells were obtained as a gift from Dr. Gordon Mills (MD Anderson Cancer Center), and maintained in RPMI (Sigma) containing 10% FBS, 1% penicillin/streptomycin, and 10 ng/ml recombinant mIL-3 (R&D Biosystems). To establish stable Ba/F3 cell lines, Ba/F3 cells were transduced with retroviruses containing mutant EGFR plasmids for 12-24 hours.
(§3) After 48-72 hours of transduction, 2 μg/ml puromycin (Invitrogen) was added to Ba/F3 cell lines in complete RPMI. To select for EGFR positive cell lines, cells were stained with PE-EGFR (Biolegend) and sorted by FACS. After sorting, EGFR positive cells were maintained in RPMI containing 10% FBS, 1% penicillin/streptomycin, and 1 ng/ml EGF to support cell viability. Drug screening was performed as previously described^41,42. Shortly, cells were plated in 384-well plates (Greiner Bio-One) at 2000-3000 cells per well in technical triplicate. Seven different concentrations of TKIs or DMSO vehicle were added to reach a final volume of 40 μL per well. After 72 hours, 11 μL of Cell Titer Glo (Promega) was added to each well. Plates were incubated for a minimum of 10 minutes, and bioluminescence was determined using a FLUOstar OPTIMA plate reader (BMG LABTECH). Raw bioluminescence values were normalized to DMSO control treated cells, and values were plotted in GraphPad Prism. […] Drug screens were performed in technical triplicate on each plate and either duplicate or triplicate biological replicates.

[2] = molecular target: T2, EGFR S768I/T790M (Homo sapiens, UniProt P00533, S768I/T790M); conditions: T790M-like-3S, 72 hours
T2 construct: expressed in transfected cells; host or cells: Ba/F3

[3] = molecular target: T3, EGFR L747P (Homo sapiens, UniProt P00533, L747P); conditions: Ba/F3 cells, EGFR L747P (PACC), Mut/WT
T3 construct: expressed in transfected cells; host or cells: Ba/F3
Description: as §1, §2
(§4) After 48-72 hours of transduction, 2 μg/ml puromycin (Invitrogen) was added to Ba/F3 cell lines in complete RPMI. To select for EGFR positive cell lines, cells were stained with PE-EGFR (Biolegend) and sorted by FACS. After sorting, EGFR positive cells were maintained in RPMI containing 10% FBS, 1% penicillin/streptomycin, and 1 ng/ml EGF to support cell viability. Drug screening was performed as previously described^41,42. Shortly, cells were plated in 384-well plates (Greiner Bio-One) at 2000-3000 cells per well in technical triplicate. Seven different concentrations of TKIs or DMSO vehicle were added to reach a final volume of 40 μL per well. After 72 hours, 11 μL of Cell Titer Glo (Promega) was added to each well. Plates were incubated for a minimum of 10 minutes, and bioluminescence was determined using a FLUOstar OPTIMA plate reader (BMG LABTECH). Raw bioluminescence values were normalized to DMSO control treated cells, and values were plotted in GraphPad Prism. […] Drug screens were performed in technical triplicate on each plate and either duplicate or triplicate biological replicates. […] Statistical differences between groups were determined by ANOVA as described in the figure legends.

[4] = molecular target: T4, EGFR Ex19del L718Q (Homo sapiens, UniProt P00533, DEL746-750/L718Q); conditions: Ba/F3 cells, EGFR Ex19del L718Q (PACC), Mut/WT
T4 construct: expressed in transfected cells; host or cells: Ba/F3

[5] = molecular target: T5, EGFR S768dupSVD (Homo sapiens, UniProt P00533, DUP768-770); conditions: Ex20, 72 hours
T5 construct: expressed in transfected cells; host or cells: Ba/F3 cells, retroviral pBabe-Puro vector
Description: (§5) Data represent the ratio of the IC50 value for a given TKI for cells with an ex20ins EGFR mutation to the IC50 value for cells with wildtype EGFR.
as §2, §4

[6] = molecular target: T6, EGFR L718Q T790M (Homo sapiens, UniProt P00533, L718Q/T790M); conditions: T790M-like-3R, 72 hours
T6 construct: expressed in transfected cells; host or cells: Ba/F3
Description: Data represent the ratio of the IC50 value for a given TKI for cells with a T790M-like-3R EGFR mutation to the IC50 value for cells with wildtype EGFR.
as §2
After 48-72 hours of transduction, 2 μg/ml puromycin (Invitrogen) was added to Ba/F3 cell lines in complete RPMI. To select for EGFR positive cell lines, cells were stained with PE-EGFR (Biolegend) and sorted by FACS. After sorting, EGFR positive cells were maintained in RPMI containing 10% FBS, 1% penicillin/streptomycin, and 1 ng/ml EGF to support cell viability. […] Shortly, cells were plated in 384-well plates (Greiner Bio-One) at 2000-3000 cells per well in technical triplicate. Seven different concentrations of TKIs or DMSO vehicle were added to reach a final volume of 40 μL per well. After 72 hours, 11 μL of Cell Titer Glo (Promega) was added to each well. Plates were incubated for a minimum of 10 minutes, and bioluminescence was determined using a FLUOstar OPTIMA plate reader (BMG LABTECH). Raw bioluminescence values were normalized to DMSO control treated cells, and values were plotted in GraphPad Prism. […] Drug screens were performed in technical triplicate on each plate and either duplicate or triplicate biological replicates. […] Statistical differences between groups were determined by ANOVA as described in the figure legends.

[7] = molecular target: T7, EGFR E709A (Homo sapiens, UniProt P00533, E709A); conditions: Ba/F3 cells, EGFR E709A (PACC), Mut/WT
T7 construct: expressed in transfected cells; host or cells: Ba/F3

[8] = molecular target: T8, EGFR Ex19del G724S (Homo sapiens, UniProt P00533, DEL746-750/G724S); conditions: Ba/F3 cells, EGFR Ex19del G724S (PACC), Mut/WT
T8 construct: expressed in transfected cells; host or cells: Ba/F3

[9] = molecular target: T9, EGFR V774M (Homo sapiens, UniProt P00533, V774M); conditions: Ba/F3 cells, EGFR V774M (PACC), Mut/WT
T9 construct: host or cells: Ba/F3
Description: as §1, §2, §3

[10] = molecular target: T10, EGFR Ex19del L718V (Homo sapiens, UniProt P00533, DEL746-750/L718V); conditions: Ba/F3 cells, EGFR Ex19del L718V (PACC), Mut/WT
T10 construct: expressed in transfected cells; host or cells: Ba/F3

[11] = molecular target: T11, EGFR A763insLQEA (Homo sapiens, UniProt P00533, INS763LQEA); conditions: Classical-Like, 72 hours
T11 construct: expressed in transfected cells; host or cells: Ba/F3 cells, retroviral pBabe-Puro vector

[12] = molecular target: T12, EGFR G719A L861Q (Homo sapiens, UniProt P00533, G719A/L861Q); conditions: Ba/F3 cells, EGFR G719A L861Q (PACC), Mut/WT
T12 construct: expressed in transfected cells; host or cells: Ba/F3

[13] = molecular target: T13, EGFR L718V (Homo sapiens, UniProt P00533, L718V); conditions: Ba/F3 cells, EGFR L718V (PACC), Mut/WT
T13 construct: expressed in transfected cells; host or cells: Ba/F3
Description: as §1, §2, §3

[14] = molecular target: T14, EGFR A763insFQEA (Homo sapiens, UniProt P00533, INS763FQEA); conditions: Classical-Like, 72 hours
T14 construct: expressed in transfected cells; host or cells: Ba/F3 cells, retroviral pBabe-Puro vector
Description: (§6) Data represent the ratio of the IC50 value for a given TKI for cells with a classical-like EGFR mutation to the IC50 value for cells with wildtype EGFR.
as §2
(§7) After 48-72 hours of transduction, 2 μg/ml puromycin (Invitrogen) was added to Ba/F3 cell lines in complete RPMI. To select for EGFR positive cell lines, cells were stained with PE-EGFR (Biolegend) and sorted by FACS. After sorting, EGFR positive cells were maintained in RPMI containing 10% FBS, 1% penicillin/streptomycin, and 1 ng/ml EGF to support cell viability. […] Shortly, cells were plated in 384-well plates (Greiner Bio-One) at 2000-3000 cells per well in technical triplicate. Seven different concentrations of TKIs or DMSO vehicle were added to reach a final volume of 40 μL per well. After 72 hours, 11 μL of Cell Titer Glo (Promega) was added to each well. Plates were incubated for a minimum of 10 minutes, and bioluminescence was determined using a FLUOstar OPTIMA plate reader (BMG LABTECH). Raw bioluminescence values were normalized to DMSO control treated cells, and values were plotted in GraphPad Prism. […] Drug screens were performed in technical triplicate on each plate and either duplicate or triplicate biological replicates.

[15] = molecular target: T15, EGFR L858R T790M L792H (Homo sapiens, UniProt P00533, L792H/L858R/T790M); conditions: T790M-like-3S, 72 hours
T15 construct: expressed in transfected cells; host or cells: Ba/F3

[16] = molecular target: T16, EGFR S811F (Homo sapiens, UniProt P00533, S811F); conditions: Classical-Like, 72 hours
T16 construct: expressed in transfected cells; host or cells: Ba/F3 cells, retroviral pBabe-Puro vector (vector made by GeneScript from EGFR WT)

[17] = molecular target: T17, EGFR E709K G719S (Homo sapiens, UniProt P00533, E709K/G719S); conditions: Ba/F3 cells, EGFR E709K G719S (PACC), Mut/WT
T17 construct: expressed in transfected cells; host or cells: Ba/F3
Description: as §1, §2, §3

[18] = molecular target: T18, EGFR G719A T790M (Homo sapiens, UniProt P00533, G719A/T790M); conditions: T790M-like-3S, 72 hours
T18 construct: expressed in transfected cells; host or cells: Ba/F3

[19] = molecular target: T19, EGFR S784F (Homo sapiens, UniProt P00533, S784F); conditions: Classical-Like, 72 hours
T19 construct: expressed in transfected cells; host or cells: Ba/F3 cells, retroviral pBabe-Puro vector (vector made by GeneScript from EGFR WT)

[20] = molecular target: T20, EGFR A767insASV (Homo sapiens, UniProt P00533, DUP767-769); conditions: Ex20, 72 hours
T20 construct: expressed in transfected cells; host or cells: Ba/F3 cells, retroviral pBabe-Puro vector
Description: as §5, §2, §4

[21] = molecular target: T21, EGFR S768I/V769L (Homo sapiens, UniProt P00533, S768I/V769L); conditions: Ba/F3 cells, EGFR S768I/V769L (PACC), Mut/WT
T21 construct: host or cells: Ba/F3
Description: as §1, §2, §3

[22] = molecular target: T22, EGFR L718Q (Homo sapiens, UniProt P00533, L718Q); conditions: Ba/F3 cells, EGFR L718Q (PACC), Mut/WT
T22 construct: expressed in transfected cells; host or cells: Ba/F3

[23] = molecular target: T23, EGFR L858R/T790M/C797S (Homo sapiens, UniProt P00533, C797S/L858R/T790M); conditions: T790M-like-3R, 72 hours
T23 construct: expressed in transfected cells; host or cells: Ba/F3

[24] = molecular target: T24, EGFR L858R T790M V843I (Homo sapiens, UniProt P00533, L858R/T790M/V843I); conditions: T790M-like-3S, 72 hours
T24 construct: expressed in transfected cells; host or cells: Ba/F3

[25] = molecular target: T25, EGFR V769L (Homo sapiens, UniProt P00533, V769L); conditions: Ba/F3 cells, EGFR V769L (PACC), Mut/WT
T25 construct: expressed in transfected cells; host or cells: Ba/F3
Description: as §1, §2, §3

[26] = molecular target: T26, EGFR L858R L718Q (Homo sapiens, UniProt P00533, L718Q/L858R); conditions: Ba/F3 cells, EGFR L858R L718Q (PACC), Mut/WT
T26 construct: host or cells: Ba/F3

[27] = molecular target: T27, EGFR L861Q (Homo sapiens, UniProt P00533, L861Q); conditions: Classical-Like, 72 hours
T27 construct: expressed in transfected cells; host or cells: Ba/F3 cells, retroviral pBabe-Puro vector
Description: as §6, §2, §7

ratio of the IC50 value for cells with a PACC EGFR mutation to the IC50 value for cells with wildtype EGFR [1]: 0.06291
ratio of IC50 for cells with mutant EGFR to IC50 for cells with wildtype EGFR (Mut/WT) [2]: 0.0215
ratio of the IC50 value for cells with a PACC EGFR mutation to the IC50 value for cells with wildtype EGFR [3]: 0.3924
ratio of the IC50 value for cells with a PACC EGFR mutation to the IC50 value for cells with wildtype EGFR [4]: 0.03389
ratio of IC50 for cells with mutant EGFR to IC50 for cells with wildtype EGFR (Mut/WT) [5]: 0.5533
ratio of IC50 for cells with mutant EGFR to IC50 for cells with wildtype EGFR (Mut/WT) [6]: 0.3579
ratio of the IC50 value for cells with a PACC EGFR mutation to the IC50 value for cells with wildtype EGFR [7]: 0.01516
ratio of the IC50 value for cells with a PACC EGFR mutation to the IC50 value for cells with wildtype EGFR [8]: 0.268
ratio of the IC50 value for cells with a PACC EGFR mutation to the IC50 value for cells with wildtype EGFR [9]: 0.06988
ratio of the IC50 value for cells with a PACC EGFR mutation to the IC50 value for cells with wildtype EGFR [10]: 0.0862
ratio of IC50 for cells with mutant EGFR to IC50 for cells with wildtype EGFR (Mut/WT) [11]: 0.07483
ratio of the IC50 value for cells with a PACC EGFR mutation to the IC50 value for cells with wildtype EGFR [12]: 0.07388
ratio of the IC50 value for cells with a PACC EGFR mutation to the IC50 value for cells with wildtype EGFR [13]: 0.139
ratio of IC50 for cells with mutant EGFR to IC50 for cells with wildtype EGFR (Mut/WT) [14]: 0.02753
ratio of IC50 for cells with mutant EGFR to IC50 for cells with wildtype EGFR (Mut/WT) [15]: 0.004757
ratio of IC50 for cells with mutant EGFR to IC50 for cells with wildtype EGFR (Mut/WT) [16]: 0.0307
ratio of the IC50 value for cells with a PACC EGFR mutation to the IC50 value for cells with wildtype EGFR [17]: 0.3569
ratio of IC50 for cells with mutant EGFR to IC50 for cells with wildtype EGFR (Mut/WT) [18]: 0.0114
ratio of IC50 for cells with mutant EGFR to IC50 for cells with wildtype EGFR (Mut/WT) [19]: 0.14
ratio of IC50 for cells with mutant EGFR to IC50 for cells with wildtype EGFR (Mut/WT) [20]: 0.6792
ratio of the IC50 value for cells with a PACC EGFR mutation to the IC50 value for cells with wildtype EGFR [21]: 0.3582
ratio of the IC50 value for cells with a PACC EGFR mutation to the IC50 value for cells with wildtype EGFR [22]: 3.977
ratio of IC50 for cells with mutant EGFR to IC50 for cells with wildtype EGFR (Mut/WT) [23]: 4.111
ratio of IC50 for cells with mutant EGFR to IC50 for cells with wildtype EGFR (Mut/WT) [24]: 0.000771
ratio of the IC50 value for cells with a PACC EGFR mutation to the IC50 value for cells with wildtype EGFR [25]: 0.3121
ratio of the IC50 value for cells with a PACC EGFR mutation to the IC50 value for cells with wildtype EGFR [26]: 2.324
ratio of IC50 for cells with mutant EGFR to IC50 for cells with wildtype EGFR (Mut/WT) [27]: 0.05048
Structure (SMILES): C=CC(=O)Nc1cccc(Oc2nc(Nc3ccc(N4CCN(C)CC4)cc3)nc3ccsc23)c1 [Olmutinib]

From patent US20240384350A1, “METHODS OF TREATING CANCER WITH KINASE INHIBITORS” (BOARD OF REGENTS, THE UNIVERSITY OF TEXAS SYSTEM, priority 2021, published 2024)
